In patent USRE42274E1, “Cyclic peptide CXCR4 antagonists” (Eli Lilly and Company, priority 2007, dated 2011):
Counter-ions that a name gives are not always drawn. Values belong to the compound of their own block, whether it stands above or below them. Numbered stars: 1 amine (or outer) side, 2 acyl side, 3 side chain; on linkers, the order of the positions; unused ones are H or OH. Bridge positions count the residues as written; N and C are the ends. Square brackets hold non-standard residues; d marks the D form. Peptide text beside a SMILES is read from it. * marks the point of attachment. Lys(iPr-d6) = deuterated Lys(iPr), [2H]C([2H])([2H])C(NCCCC[C@H](N[*:1])C(=O)[*:2])C([2H])([2H])[2H]; 2Nal = N[C@@H](Cc1ccc2ccccc2c1)C(=O)O; Lys(iPr) = CC(C)NCCCC[C@H](N)C(=O)O; Lys(Me2) = CN(C)CCCC[C@H](N)C(=O)O; Dap = NC[C@H](N)C(=O)O; Bz = O=C(c1ccccc1)*

Experiments:
[1] = biological target: T1, CXCR4 (Homo sapiens, UniProt P61073); assay: Human CXCR4/125I-SDF-1α binding inhibition assay; parameters: human leukemia CCRF-CEM cells (ATCC CCL 119) expressing endogenous CXCR4 are employed; endogenous in cells; host or cells: CCRF-CEM (ATCC CCL 119), whole cells; settings: for Ki: CCRF-CEM cells expressing endogenous CXCR4, Ki calculated from IC50
Description: “Ki” values are calculated using IC50 values determined in the CXCR4/^125I-SDF-1α binding assay described below by employing equation 7.22 of Enzymes, A Practical Introduction to Structure, Mechanism, and Data Analysis, Robert A. Copeland, Wiley-VCH, New York, 1996, page 207.
Human CXCR4/^125I-SDF-1α Binding Inhibition Assay
SDF-1 binding to CXCR4 is the first step in activating the CXCR4 intracellular signalling pathway. To determine if a compound can block the interaction of SDF-1 and CXCR4, human leukemia CCRF-CEM cells (ATCC CCL 119) expressing endogenous CXCR4 are employed in an ^125I-labeled SDF-1α binding assay. The assay is performed in a 96-well U-bottom, non-treated polystyrene plate (Corning Incorporated, Costar, No. 3632). The binding assay buffer is prepared with RPMI 1640 medium (Gibco, Grand Island, N.Y.) containing 10 mM HEPES, pH 7.5, and 0.2% BSA. Briefly, 200 μL reaction mixtures containing 300 pM SDF ligand (60 pM ^125I-SDF-1α (Perkin Elmer) and 240 pM cold SDF-1α (R&D Systems), different concentrations of the test compound in assay buffer, 100,000 human CCRF-CEM cells, and 0.5 mg SPA beads (Wheatgerm agglutinin beads; Amersham) are incubated at room temperature for 2 hr. Plates are then counted in a 1450 Microbeta Liquid Scintillation and Luminescence Counter (Wallac) in SPA mode. CXCR4 antagonists decrease the bound radioactivity in this assay in a dose-dependent manner. The inhibitory potency (K1 or IC50) of a test compound is calculated using GraphPad Prism software, based on the dose-dependent decrease of bound radioactivity.

[2] = In vivo metabolic stability in monkey; settings: up to 24 hours after administration
Description: (§1) Pharmacologic properties such as compound bioavailability, in vivo metabolic stability, and pharmacokinetic/pharmacodynamic properties can be determined by methods well known in the art of drug development. […] For example, in mice, the half-life (T½) of the compound of Example 58 is about 3 hours. With respect to pharmacodynamic properties, preferred compounds induce prolonged neutrophil and white blood cell mobilization in mice. For example, the compound of Example 25 induces a significant increase of neutrophils and white blood cells in peripheral blood for at least 6 hours after single dose subcutaneous administration at 5 mg/kg in mice.

[3] = In vivo metabolic stability in dog; settings: up to 24 hours after administration
Description: as §1

[4] = biological target: T2, human chemokine receptor CXCR2 (Homo sapiens, UniProt P25025); assay: Chemokine receptor binding selectivity assay, ligand binding
T2 sequence (P25025 1-360): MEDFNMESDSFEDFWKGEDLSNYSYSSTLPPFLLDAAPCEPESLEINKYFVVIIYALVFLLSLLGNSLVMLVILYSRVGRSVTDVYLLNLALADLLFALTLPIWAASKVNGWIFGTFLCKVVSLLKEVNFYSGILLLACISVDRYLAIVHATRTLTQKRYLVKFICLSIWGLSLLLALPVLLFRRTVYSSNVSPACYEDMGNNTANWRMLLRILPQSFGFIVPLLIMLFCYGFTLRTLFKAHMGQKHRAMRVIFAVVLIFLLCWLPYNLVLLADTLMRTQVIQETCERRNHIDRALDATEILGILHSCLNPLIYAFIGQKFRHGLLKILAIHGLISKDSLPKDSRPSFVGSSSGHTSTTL
Text: Chemokine Receptor Binding Selectivity Assays
The binding selectivity of the present compounds for the CXCR4 receptor compared to that for other chemokine receptors, such as human CCR1, CCR2, CXCR2, or CXCR3, and other G-protein-coupled receptors, can be assessed in cells transfected with nucleic acid encoding and expressing such receptors, or in cells in which such receptors are endogenously expressed. Whole cells or membrane fragments can be used to assess competition of test compounds with the respective ligands for these receptors in a manner similar to that described above for the CXCR4/^125I-SDF-1α binding inhibition assay.

[5] = biological target: T1, CXCR4; assay: Chemotaxis assay, SDF-1α-induced migration of U937 cells; assay type: cell-based; parameters: endogenous in cells; settings: SDF-1α 10 ng/mL
Text: CXCR4/SDF-1 interaction regulates migration (chemotaxis) of cells bearing CXCR4 on their surface. To determine the antagonist and cellular activities of a test compound, a chemotaxis assay using human histiocytic lymphoma U937 cells (ATCC CRL 1593) that express endogenous CXCR4 are employed. Briefly, U937 cells, grown in DMEM medium (Gibco, Grand Island, N.Y.) containing 10% FBS, 1% MEM sodium pyruvate (Gibco), 1% MEM nonessential amino acids (Gibco), and 1% GlutaMAX 1 (Gibco), are harvested and washed once with chemotaxis assay buffer prepared with 1×RPMI medium (Gibco) containing 10 mM HEPES, pH 7.5, and 0.3% BSA. After washing, cells are resuspended in assay buffer at a concentration of 5×10^6 cells/mL. The assay is performed in a 96-well ChemoTx plate (NeuroProbe) according to the manufacturer's directions. […] The plate is then incubated for 60 min at 37° C., and the migrated cells are detected by measuring the absorbance at 492 nm with a Tecan Spectrafluor Plus Microplate Reader (Salzburg, Austria). CXCR4 antagonists inhibit cell migration, reducing the absorbance reading. The inhibitory potency (IC50) of a test compound in this assay is calculated using GraphPad Prism software, based on the dose-dependent decrease of absorbance at 492 nm.

[6] = test system: human non-Hodgkin's lymphoma Namalwa cells; assay: Anti-tumor activity in a SCID/Namalwa xenograft model; assay type: in vivo, mouse; settings: 1 mg/kg BID, subcutaneous
Text: Anti-Tumor Activity in a SCID/Namalwa Xenograft Model
SDF-1/CXCR4 interaction appears to play an important role in multiple stages of tumorigenesis, including tumor growth, invasion, angiogenesis, and metastasis. To evaluate in vivo anti-tumor activity of a test compound, a tumor xenograft model using NOD/SCID mice (Jackson Laboratories) and human non-Hodgkin's lymphoma Namalwa cells (ATCC CRL 1432) are employed. Briefly, 200,000 Namalwa cells mixed with matrigel (1:1) are implanted subcutaneously into the rear flank of the animals. The implanted tumor cells grow as solid tumors, the dimensions of which can be continuously monitored and measured using a caliper. To determine the in vivo efficacy of a test compound in this model, one can treat animals (10/group) with different doses of test compounds dissolved in saline or PBS, beginning 48 hours post tumor cell implantation. Compounds are dosed subcutaneously, and tumor volume and body weight are determined every 2 or 3 days. Studies generally last 3-4 weeks, depending on tumor growth. The anti-tumor growth activity of a test compound is determined by the percent reduction in tumor volume in treatment groups compared to tumor volume in control groups treated with vehicle alone.

[7] = test system: neutrophils and white blood cells in peripheral blood; assay: Compound-induced white blood cell and neutrophil mobilization in C57BL/6 mice; assay type: in vivo, mouse; settings: 5 mg/kg
Text: Compound-Induced White Blood Cell and Neutrophil Mobilization in C57BL/6 Mice
Stem cells within the bone marrow actively maintain continuous production of all mature blood cell lineages throughout life. Bone marrow is the primary site for white blood cell (WBC)/neutrophil production and release into the circulation. The CXCR4/SDF-1 axis appears to be critical for the retention and release of WBCs, neutrophils, and hematopoietic progenitor cells in the bone marrow, and interruption of CXCR4/SDF-1 interaction in bone marrow leads to an increase of these cells in peripheral blood. A short-term mouse WBC/neutrophil mobilization model can be used to determine the in vivo target-modulating activity of a test compound. Briefly, pathogen-free 5-6 week old female C57BL/6 mice (Taconic) are housed for at least one week prior to assay. Animals are allowed continuous access to sterilized rodent chow and acidified water. Groups of 5 mice are injected subcutaneously with test compounds in saline, or with saline control, and then sacrificed by CO2 asphyxiation and cervical dislocation at various time points post compound administration. Peripheral blood is collected by cardiac puncture using EDTA-coated syringes and tubes. […] Total WBCs, neutrophils, and lymphocytes in the peripheral blood are recorded. […]

[8] = Bioavailability in rats; settings: rat, in vivo, sc, subcutaneous
Description: as §1

T1 sequence (P61073 whole entry): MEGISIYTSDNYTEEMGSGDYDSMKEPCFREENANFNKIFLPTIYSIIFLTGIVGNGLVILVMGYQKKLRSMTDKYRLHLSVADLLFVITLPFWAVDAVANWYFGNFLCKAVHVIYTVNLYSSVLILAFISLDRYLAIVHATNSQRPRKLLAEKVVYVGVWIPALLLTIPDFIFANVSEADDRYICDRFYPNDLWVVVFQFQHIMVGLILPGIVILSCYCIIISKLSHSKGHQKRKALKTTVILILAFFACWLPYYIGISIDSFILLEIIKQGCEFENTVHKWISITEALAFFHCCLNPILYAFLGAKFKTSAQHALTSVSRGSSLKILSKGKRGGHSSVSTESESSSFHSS

target receptor affinity compared to the non-labeled counterpart ([1]; deuterium-labeled peptide vs non-labeled counterpart): identical target receptor affinity
Compound: cyclo[Phe-Tyr-Lys(iPr-d6)-DArg-2Nal-Gly-DGlu]-Lys(iPr-d6)-NH2 (FY[Lys(iPr-d6)][dR][2Nal]G[dE][Lys(iPr-d6)]-NH2; lactam N-7) [Example 89]

metabolites in plasma and urine [2]: no detectable metabolites | metabolites in plasma and urine [3]: no detectable metabolites | Ki [4]: > 73000 nM
Compound: CC(C)NCCCC[C@H](NC(=O)[C@H]1CCC(=O)N[C@@H](Cc2ccccc2)C(=O)N[C@@H](Cc2ccc(O)cc2)C(=O)N[C@@H](CCCCNC(C)C)C(=O)N[C@H](CCCNC(=N)N)C(=O)N[C@@H](Cc2ccc3ccccc3c2)C(=O)NCC(=O)N1)C(N)=O [Example 57a, cyclo[Phe-Tyr-Lys(iPr)-DArg-2Nal-Gly-DGlu]-Lys (iPr)-NH2.acetic acid salt] (FY[Lys(iPr)][dR][2Nal]G[dE][Lys(iPr)]-NH2; lactam N-7)

Ki [1]: 0.285 nM | IC50 [5]: 0.171 nM
Compound: CC(C)NCCCC[C@@H]1NC(=O)[C@H](Cc2ccc(O)cc2)NC(=O)[C@@H](C)NC(=O)CC[C@H](C(N)=O)NC(=O)CNC(=O)[C@H](Cc2ccc3ccccc3c2)NC(=O)[C@@H](CCCNC(=N)N)NC1=O [Example 50, cyclo[DAla-Tyr-Lys(iPr)-DArg-2Nal-Gly-DGlu]-NH2] ([dA]Y[Lys(iPr)][dR][2Nal]G[dE]-NH2; lactam N-7)

Compound: cyclo[Gly-Tyr-Lys(iPr)-DArg-2Nal-Gly-DGlu]-NH2 (GY[Lys(iPr)][dR][2Nal]G[dE]-NH2; lactam N-7; SMILES CC(C)NCCCC[C@@H]1NC(=O)[C@H](Cc2ccc(O)cc2)NC(=O)CNC(=O)CC[C@H](C(N)=O)NC(=O)CNC(=O)[C@H](Cc2ccc3ccccc3c2)NC(=O)[C@@H](CCCNC(=N)N)NC1=O) [Example 26]
tumor growth inhibition [6]: significantly inhibit tumor growth

Ki [1]: 0.096 nM
Compound: CC(C)NCCCC[C@@H]1NC(=O)[C@H](Cc2ccc(O)cc2)NC(=O)CNC(=O)CC[C@H](C(=O)N[C@@H](CCCCNC(C)C)C(=O)NCC(=O)N[C@@H](Cc2ccc3ccccc3c2)C(N)=O)NC(=O)CNC(=O)[C@H](Cc2ccc3ccccc3c2)NC(=O)[C@@H](CCCNC(=N)N)NC1=O [Example 75, cyclo[Gly-Tyr-Lys(iPr)-DArg-2Nal-Gly-DGlu]-Lys (iPr)-Gly-2Nal-NH2] (GY[Lys(iPr)][dR][2Nal]G[dE][Lys(iPr)]G[2Nal]-NH2; lactam N-7)

Compound: cyclo[Gly-Tyr-Lys(iPr)-DArg-2Nal-Gly-Glu]-Arg-NH2 (GY[Lys(iPr)][dR][2Nal]GER-NH2; lactam N-7) [Example 39]
average neutrophil ratio (neutrophil increase in treatment group vs. saline control group) ([7]; 3 hours after compound administration, subcutaneous): 4.6

IC50 [5]: 2.05 nM
Compound: CN(C)CCCC[C@@H]1NC(=O)[C@H](Cc2ccc(O)cc2)NC(=O)[C@@H](NC(=O)c2ccccc2)CC(=O)NC[C@@H](C(=O)N[C@@H](CCCNC(=N)N)C(N)=O)NC(=O)CNC(=O)[C@H](Cc2ccc3ccccc3c2)NC(=O)[C@@H](CCCNC(=N)N)NC1=O [Example 19, Bz-cyclo[Asp-Tyr-Lys(Me2)-DArg-2Nal-Gly-Dap]-Arg-NH2] (Bz-DY[Lys(Me2)][dR][2Nal]G[Dap]R-NH2; lactam 1-7)

Ki [1]: 3.45 nM
Compound: CC(=O)N[C@H]1CNC(=O)CC[C@@H](C(=O)N[C@@H](CCCNC(=N)N)C(N)=O)NC(=O)CNC(=O)[C@H](Cc2ccc3ccccc3c2)NC(=O)[C@@H](CCCNC(=N)N)NC(=O)[C@H](CCCNC(=N)N)NC(=O)[C@H](Cc2ccc(O)cc2)NC1=O [Example 1, Ac-cyclo[Dap-Tyr-Arg-DArg-2Nal-Gly-Glu]-Arg-NH2] (Ac-[Dap]YR[dR][2Nal]GER-NH2; lactam 1-7)

Compound: cyclo[Gly-Tyr-Lys(iPr)-DArg-2Nal-Gly-DGlu]-Arg-NH2 (GY[Lys(iPr)][dR][2Nal]G[dE]R-NH2; lactam N-7) [Example 25]
duration of significant increase of neutrophils and white blood cells in peripheral blood ([7]; single dose subcutaneous, mice): at least 6 hours

bioavailability [8]: ~100%
Compound: CCNC(=O)[C@H](CCCNC(=N)N)NC(=O)[C@H]1CCC(=O)NCC(=O)N[C@@H](Cc2ccc(O)cc2)C(=O)N[C@@H](CCCCNC(C)C)C(=O)N[C@H](CCCNC(=N)N)C(=O)N[C@@H](Cc2ccc3ccccc3c2)C(=O)NCC(=O)N1 [Example 44, cyclo[Gly-Tyr-Lys(iPr)-DArg-2Nal-Gly-DGlu]-Arg-NHEt] (GY[Lys(iPr)][dR][2Nal]G[dE]R-NHEt; lactam N-7)
